Patent US20260021108A1, “USE OF INHIBITORS OF THE HIPPO SIGNALLING PATHWAY FOR THE TREATMENT OF CHRONIC NEPHROPATHIES” (INSTITUT NATIONAL DE LA SANTÉ ET DE LA RECHERCHE MÉDICALE, priority 2022, published 2026)

How the values were obtained:
MDCK renal cells [1] = experiment: Ccl2 and Cxcl10 mRNA response to UPEC in confluent MDCK cells; type: cell-based, Dog; conditions: 6 hours, n=5
Experimental: (§1) Uropathogen E. coli (UTI89 strain, UPEC) bacteria strains were grown as previously described (Zychlinsky Scharff et al., 2019). Inactivation of bacteria was performed on bacteria resuspended at a concentration of 109/ml in PBS and heated at 60° C. for one hour.
Madin-Darby canine kidney cells (MDCK, kind gift from Prof. Kai Simons, MPI-CBG, Dresden, Germany) were cultured using DMEM (GIBCO, 41966-029) supplemented with 10% FBS (GIBCO, 10270-106) and 1% penicillin-streptomycin (GIBCO, 15140-122). A total of 200,000 cells/cm^2 were seeded for 10 days on 12 well plate (Corning, 353043). Confluent MDCK cells were stimulated for 6 hours with 5 μM XMU-MP-1 (Selleckchem, S8334) or 0.04% DMSO. […]
(§2) Total RNAs were obtained from cells using RNeasy Mini Kit (Qiagen) and reverse transcribed using High Capacity cDNA Reverse Transcription Kit (Applied Biosystems) according to the manufacturer's protocol. Quantitative PCR were performed with iTaq™ Universal SYBR® Green Supermix (Bio-Rad) on a CFX384 C1000 Touch (Bio-Rad). […] Each biological replicate was measured in technical duplicates.
(§3) Data are expressed as means+/−standard deviation. Differences between groups were evaluated using unpaired t test when only 2 groups were evaluated or one-way ANOVA followed, when significant (P<0.05), by the Tukey-Kramer test. […]

mIMCD-3 renal cells [2] = experiment: NPH-cytokine signature mRNA abundance (qRT-PCR) in confluent mIMCD-3 cells; type: cell-based, Mouse; conditions: n=3
Experimental: (§4) Mouse inner medullary collecting duct (mIMCD-3) cells were grown in DMEM/F-12 (1:1, GIBCO, 21331-020) supplemented with 10% FBS, 1% penicillin-streptomycin and 2 mM L-Glutamine (GIBCO, 25030-024). A total of 50,000 cells/cm^2 were seeded for 3 days on 12 well plate. Confluent mIMCD-3 cells were stimulated with 5 μM XMUMP-1 (Selleckchem, S8334), or 10 μM Lats-IN-1 (MedChemExpress, HY-138489) or 0.04% DMSO. For bacteria experiment, mIMCD-3 cells were starved overnight prior stimulation and then stimulated for 6 hours with 5 μM XMU-MP-1 or 0.04% DMSO with or without 1.108/mL UPEC.
(§5) Total RNAs were obtained from cells using RNeasy Mini Kit (Qiagen) and reverse transcribed using High Capacity cDNA Reverse Transcription Kit (Applied Biosystems) according to the manufacturer's protocol. Quantitative PCR were performed with iTaq™ Universal SYBR® Green Supermix (Bio-Rad) on a CFX384 C1000 Touch (Bio-Rad). Hprt, Sdha, Gapdh and Ppia were used as normalization controls. Each biological replicate was measured in technical duplicates.
Data are expressed as means+/−standard deviation. Differences between groups were evaluated using unpaired t test when only 2 groups were evaluated or one-way ANOVA followed, when significant (P<0.05), by the Tukey-Kramer test. The statistical analysis was performed using GraphPad Prism V8 software.

MDCK renal cells [3] = experiment: NPH-cytokine signature mRNA abundance (qRT-PCR) in confluent MDCK cells; type: cell-based, Dog; conditions: 5 μM XMU-MP-1, 6 hours, n=3-6
Experimental: Madin-Darby canine kidney cells (MDCK, kind gift from Prof. Kai Simons, MPI-CBG, Dresden, Germany) were cultured using DMEM (GIBCO, 41966-029) supplemented with 10% FBS (GIBCO, 10270-106) and 1% penicillin-streptomycin (GIBCO, 15140-122). A total of 200,000 cells/cm^2 were seeded for 10 days on 12 well plate (Corning, 353043). Confluent MDCK cells were stimulated for 6 hours with 5 μM XMU-MP-1 (Selleckchem, S8334) or 0.04% DMSO. For bacteria experiment, MDCK cells were starved overnight prior stimulation and then stimulated for 6 hours with 5 μM XMU-MP-1 or 10 μM Lats-IN-1 (MedChemExpress, HY-138489) with or without 1.108/mL UPEC. All cells were regularly tested for mycoplasma contamination and were mycoplasma-free.
as §5, §3

mIMCD-3 renal cells [4] = experiment: Inflammatory cytokine mRNA response to heat inactivated uropathogenic Escherichia coli (UPEC) in mIMCD-3 cells; type: cell-based, Mouse; conditions: confluent mIMCD-3 cells, 5 μM XMU-MP-1 and heat inactivated UPEC, 6 hours, n=7-10
Experimental: as §1
as §4, with “For bacteria experiment, mIMCD-3 cells were starved overnight prior stimulation and then stimulated for 6 hours with 5 μM XMU-MP-1 or 0.04% DMSO with or without 1.108/mL UPEC.” left out
as §2, §3

| Compound | inflammatory response to bacteria (Ccl2 and Cxcl10 mRNA abundance) (MDCK renal cells [1]; 10 μM Lats-IN-1 and UPEC) | NPH-cytokine signature (Ctgf, Cyr61, Ccl2, Ccl5, Cx3cl1, Cxcl1, Cxcl10, Cxcl16, Cxcl17, Il1rn, Il33, Il34, Lgals9 mRNA abundance) (mIMCD-3 renal cells [2]; 10 μM Lats-IN-1, 6 hours) | NPH-cytokine signature (Ctgf, Cyr61, Ccl2, Ccl5, Cx3cl1, Cxcl10, Cxcl16, Cxcl17, Il1rn, Il34 mRNA abundance) (MDCK renal cells [3]) | inflammatory response to bacteria (Ccl2 and Cxcl10 mRNA abundance) (MDCK renal cells [1]; 5 μM XMU-MP-1 and UPEC) | inflammatory response to uropathogenic bacteria (cytokine mRNA abundance) (mIMCD-3 renal cells [4]) | NPH-cytokine signature (Ctgf, Cyr61, Ccl2, Ccl5, Cx3cl1, Cxcl1, Cxcl10, Cxcl16, Cxcl17, Il1rn, Il33, Il34, Lgals9 mRNA abundance) (mIMCD-3 renal cells [2]; 5 μM XMU-MP-1, 6 hours) |
| --- | --- | --- | --- | --- | --- | --- |
| O=C(N=c1sccn1Cc1ccccc1)c1c[nH]c2ncccc12 [Lats-IN-1, N-(3-benzylthiazol-2(3H)-ylidene)-1H-pyrrolo[2,3-b]pyridine-3-carboxamide] | reduces NPH-cytokine signature and inflammatory response to bacteria | suppresses partially NPH-cytokine signature |  |  |  |  |
| CN1C(=O)c2sccc2N(C)c2nc(Nc3ccc(S(N)(=O)=O)cc3)ncc21 [XMU-MP-1, 4-[(6, 10-Dihydro-5, 10-dimethyl-6-oxo-5H-pyrimido[5,4-b]thieno[3,2-e][1,4]diazepin-2-yl)amino]benzenesulfonamide] |  |  | reduces NPH-cytokine signature | reduces NPH-cytokine signature and inflammatory response to bacteria | blunts inflammatory response to uropathogenic bacteria | suppresses NPH-cytokine signature |
